Patent US20260250290A1 (BRISTOL-MYERS SQUIBB COMPANY, priority 2023, published 2026)
Counter-ions that a name gives are not always drawn.

Target: T1, full length SGK1 (Homo sapiens, UniProt O00141)
T1 construct: 125 μM full length SGK1 (Life Technologies Part #PR7358A); purchased Life Technologies PR7358A
T1 sequence (O00141 1-431): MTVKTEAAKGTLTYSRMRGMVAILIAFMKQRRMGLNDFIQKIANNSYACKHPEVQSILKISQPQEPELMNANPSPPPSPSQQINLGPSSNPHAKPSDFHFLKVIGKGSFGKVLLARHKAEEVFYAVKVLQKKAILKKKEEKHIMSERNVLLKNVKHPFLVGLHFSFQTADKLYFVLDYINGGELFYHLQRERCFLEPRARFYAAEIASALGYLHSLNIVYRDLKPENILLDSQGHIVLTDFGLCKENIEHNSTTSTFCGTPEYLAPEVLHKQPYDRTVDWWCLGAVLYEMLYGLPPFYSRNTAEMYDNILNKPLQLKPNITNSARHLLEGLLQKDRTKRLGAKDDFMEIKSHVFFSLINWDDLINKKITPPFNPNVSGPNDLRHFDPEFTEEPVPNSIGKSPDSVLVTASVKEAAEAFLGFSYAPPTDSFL
Experiment: SGK1 inhibition Assay A (Caliper LabChip electrophoretic separation of fluorescent peptide substrate and phosphorylated product)
Assay type: biochemical
Settings: Assay A; 20 μM ATP, 40 min incubation; read-out: SGK1 IC50

Row | IC50 [nM] | SMILES
1 | 59 | CC(=O)N1CC=C(c2cc(OCCN(C)C)c(C(=O)N[C@@H]3CCCN(c4cc(C5=CCN(C(C)=O)C5)n5ncnc(N)c45)C3)s2)C1 [Example 910, (R)-5-(1-acetyl-2,5-dihydro-1H-pyrrol-3-yl)-N-(1-(7-(1-acetyl-2,5-dihydro-1H-pyrrol-3-yl)-4-aminopyrrolo[2,1-f][1,2,4]triazin-5-yl)piperidin-3-yl)-3-(2-(dimethylamino)ethoxy)thiophene-2-carboxamide]
2 | 17 | Nc1ncnn2c(-c3ccnc(F)c3)cc(N3CCC[C@@H](NC(=O)c4csc5ccccc45)C3)c12 [Example 159, (R)-N-(1-(4-amino-7-(2-fluoropyridin-4-yl)pyrrolo[2,1-f][1,2,4]triazin-5-yl)piperidin-3-yl)benzo[b]thiophene-3-carboxamide, TFA]
3 | 61 | CC(=O)N1CC=C(c2cc(N3CCC[C@@H](NC(=O)c4cccc(F)n4)C3)c3c(N)ncnn23)C1 [Example 726, :(R)-N-(1-(7-(1-acetyl-2,5-dihydro-1H-pyrrol-3-yl)-4-aminopyrrolo[2,1-f][1,2,4]triazin-5-yl)piperidin-3-yl)-6-fluoropicolinamide]
4 | 5 | CC(=O)c1ccc(-c2cc(N3CCC[C@@H](NC(=O)c4ccc(Cl)s4)C3)c3c(N)ncnn23)cc1 [Example 204, (R)-N-(1-(7-(4-acetylphenyl)-4-aminopyrrolo[2,1-f][1,2,4]triazin-5-yl)piperidin-3-yl)-5-chlorothiophene-2-carboxamide, TFA]
5 | 3 | CC(C)N1CC2(CC(Oc3cc(Cl)sc3C(=O)N[C@@H]3CCCN(c4cc(-c5ccc(C#N)c(F)c5)n5ncnc(N)c45)C3)C2)C1 [Example 631, (R)—N-(1-(4-amino-7-(4-cyano-3-fluorophenyl)pyrrolo[2,1-f][1,2,4]triazin-5-yl)piperidin-3-yl)-5-chloro-3-((2-isopropyl-2-azaspiro[3.3]heptan-6-yl)oxy)thiophene-2-carboxamide]
6 | 37 | CS(=O)(=O)c1ccc(-c2cc(N3CCC[C@@H](NC(=O)c4ccnc(N5CCOCC5)c4)C3)c3c(N)ncnn23)cc1 [Example 69, (R)-N-(1-(4-amino-7-(4-(methylsulfonyl)phenyl)pyrrolo[2,1-f][1,2,4]triazin-5-yl)piperidin-3-yl)-2-morpholinoisonicotinamide]
7 | 12 | C=Cc1cc(C)sc1C(=O)N[C@@H]1CCCN(c2cc(-c3ccnc(F)c3)n3ncnc(N)c23)C1 [Example 169, (R)—N-(1-(4-amino-7-(2-fluoropyridin-4-yl)pyrrolo[2,1-f][1,2,4]triazin-5-yl)piperidin-3-yl)-5-methyl-3-vinylthiophene-2-carboxamide]
8 | 26 | CC(=O)N1CC=C(c2cc(N3CCC[C@@H](NC(=O)c4ccncc4)C3)c3c(N)ncnn23)C1 [Example 730, (R)-N-(1-(7-(1-acetyl-2,5-dihydro-1H-pyrrol-3-yl)-4-aminopyrrolo[2,1-f][1,2,4]triazin-5-yl)piperidin-3-yl)isonicotinamide]
9 | 309 | CC(=O)N1CC=C(c2cc(N3CCC[C@@H](NC(=O)c4sc(C(F)F)cc4C4CCN(C)C4)C3)c3c(N)ncnn23)C1 (stereo partly drawn) [Example 406, N-((R)-1-(7-(1-acetyl-2,5-dihydro-1H-pyrrol-3-yl)-4-aminopyrrolo[2,1-f][1,2,4]triazin-5-yl)piperidin-3-yl)-5-(difluoromethyl)-3-(1-methylpyrrolidin-3-yl)thiophene-2-carboxamide]
10 | 6 | COc1cc(-c2cc(N3CCC[C@@H](NC(=O)c4cccc(N5CCN(C)CC5)n4)C3)c3c(N)ncnn23)ccn1 [Example 786, (R)-N-(1-(4-amino-7-(2-methoxypyridin-4-yl)pyrrolo[2,1-f][1,2,4]triazin-5-yl)piperidin-3-yl)-6-(4-methylpiperazin-1-yl)picolinamide]
11 | 6 | N#Cc1cc(-c2cc(N3CCC[C@@H](NC(=O)c4ccc(C(F)F)s4)C3)c3c(N)ncnn23)ccn1 [Example 505, (R)-N-(1-(4-amino-7-(2-cyanopyridin-4-yl)pyrrolo[2,1-f][1,2,4]triazin-5-yl)piperidin-3-yl)-5-(difluoromethyl)thiophene-2-carboxamide]
12 | 3 | COC(=O)N1CC=C(c2cc(N3CCC[C@@H](NC(=O)c4sc(C5CC5)cc4OC4CCNCC4)C3)c3c(N)ncnn23)C1 [Example 379, Methyl (R)-3-(4-amino-5-(3-(5-cyclopropyl-3-(piperidin-4-yloxy)thiophene-2-carboxamido)piperidin-1-yl)pyrrolo[2,1-f][1,2,4]triazin-7-yl)-2,5-dihydro-1H-pyrrole-1-carboxylate]
13 | 54 | N#Cc1ccc(-c2cc(N3CCC[C@@H](NC(=O)c4nc5ccccc5o4)C3)c3c(N)ncnn23)cn1 [Example 650, (R)-N-(1-(4-amino-7-(6-cyanopyridin-3-yl)pyrrolo[2,1-f][1,2,4]triazin-5-yl)piperidin-3-yl)benzo[d]oxazole-2-carboxamide]
14 | 8 | CC(=O)N1CC=C(c2cc(N3CCC[C@@H](NC(=O)c4nc(N5CCN(C)CC5)ccc4F)C3)c3c(N)ncnn23)C1 [Example 744, (R)-N-(1-(7-(1-acetyl-2,5-dihydro-1H-pyrrol-3-yl)-4-aminopyrrolo[2,1-f][1,2,4]triazin-5-yl)piperidin-3-yl)-3-fluoro-6-(4-methylpiperazin-1-yl)picolinamide]
15 | 2 | Cc1ccc(C(=O)N[C@@H]2CCCN(c3cc(-c4ccc(S(C)(=O)=O)cc4)n4ncnc(N)c34)C2)s1 [Example 87, (R)-N-(1-(4-amino-7-(4-(methylsulfonyl)phenyl)pyrrolo[2,1-f][1,2,4]triazin-5-yl)piperidin-3-yl)-5-methylthiophene-2-carboxamide]
16 | 6 | CC(=O)N1CC=C(c2cc(N3CCC[C@@H](NC(=O)c4ccc(Cl)s4)C3)c3c(N)ncnn23)C1 [Example 731, (R)-N-(1-(7-(1-acctyl-2,5-dihydro-1H-pyrrol-3-yl)-4-aminopyrrolo[2,1-f][1,2,4]triazin-5-yl)piperidin-3-yl)-5-chlorothiophene-2-carboxamide]
17 | 26 | CC(=O)N1CC=C(c2cc(N3CCC[C@@H](NC(=O)c4cccc(N(C)C)n4)C3)c3c(N)ncnn23)C1 [Example 725, (R)-N-(1-(7-(1-acetyl-2,5-dihydro-1H-pyrrol-3-yl)-4-aminopyrrolo[2,1-f][1,2,4]triazin-5-yl)piperidin-3-yl)-6-(dimethylamino) picolinamide]
18 | 21 | CS(=O)(=O)c1ccc(-c2cc(N3CCC[C@@H](NC(=O)c4cnns4)C3)c3c(N)ncnn23)cc1 [Example 70, (R)-N-(1-(4-amino-7-(4-(methylsulfonyl)phenyl)pyrrolo[2,1-f][1,2,4]triazin-5-yl)piperidin-3-yl)-1,2,3-thiadiazole-5-carboxamide]
19 | 130 | N#Cc1ccc(-c2cc(N3CCC[C@@H](NC(=O)c4cc5cc(F)ccc5[nH]4)C3)c3c(N)ncnn23)cn1 [Example 515, (R)-N-(1-(4-amino-7-(6-cyanopyridin-3-yl)pyrrolo[2,1-f][1,2,4]triazin-5-yl)piperidin-3-yl)-5-fluoro-1H-indole-2-carboxamide]
20 | 30 | COC(=O)N1CC=C(c2cc(N3CCC[C@@H](NC(=O)c4sc(C(F)F)cc4OCCNC(C)=O)C3)c3c(N)ncnn23)C1 [Example 423, Methyl (R)-3-(5-(3-(3-(2-acetamidoethoxy)-5-(difluoromethyl)thiophene-2-carboxamido)piperidin-1-yl)-4-aminopyrrolo[2,1-f][1,2,4]triazin-7-yl)-2,5-dihydro-1H-pyrrole-1-carboxylate]
21 | 18 | COC(=O)N1CC=C(c2cc(N3CCC[C@@H](NC(=O)c4sc(Cl)cc4OCC4CNC4)C3)c3c(N)ncnn23)C1 [Example 634, Methyl (R)-3-(4-amino-5-(3-(3-(azetidin-3~ylmethoxy)-5-chlorothiophene-2-carboxamido)piperidin-1-y1)pyrrolo[2,1-f][1,2,4]triazin-7-y1)-2,5-dihydro-\H-pyrrole-1-carboxylate]
22 | 12 | Nc1ncnn2c(-c3cc(F)c(O)c(F)c3)cc(N3CCC[C@@H](NC(=O)c4ccc(Cl)s4)C3)c12 [Example 206, (R)-N-(1-(4-amino-7-(3,5-difluoro-4-hydroxyphenyl)pyrrolo [2,1-f][1,2,4]triazin-5-yl)piperidin-3-yl)-5-chlorothiophene-2-carboxamide]
23 | 21 | Cc1cnc(C(=O)N[C@@H]2CCCN(c3cc(-c4ccc(S(C)(=O)=O)cc4)n4ncnc(N)c34)C2)s1 [Example 101, (R)-N-(1-(4-amino-7-(4-(methylsulfonyl)phenyl)pyrrolo[2,1-f][1,2,4]triazin-5-yl)piperidin-3-yl)-5-methylthiazole-2-carboxamide]
24 | 1 | Nc1ncnn2c(-c3ccc4nnnn4c3)cc(N3CCC[C@@H](NC(=O)c4ccc(Cl)s4)C3)c12 [Example 244, (R)-N-(1-(4-amino-7-(tetrazolo[1,5-a]pyridin-6-yl)pyrrolo[2,1-f][1,2,4]triazin-5-yl)piperidin-3-yl)-5-chlorothiophene-2-carboxamide]
25 | 3 | CC(=O)N1CC=C(c2cc(N3CCC[C@@H](NC(=O)c4sc(Cl)cc4OC[C@H](C)N)C3)c3c(N)ncnn23)C1 [Example 330, N—((R)-1-(7-(1-acetyl-2,5-dihydro-1H-pyrrol-3-yl)-4-aminopyrrolo[2,1-f][1,2,4]triazin-5-yl)piperidin-3-yl)-3-((S)-2-aminopropoxy)-5-chlorothiophene-2-carboxamide]
